Assay results published in patent publication US8969516B2, “Method of hydrolysis of peptide bond” (priority 2006, dated 2015).

Assay: MALDI-TOF screening of Ni^2+ dependent hydrolysis in a combinatorial peptide library
Format: physicochemical
Settings: CH3CO-Gly-Ala-Ser-X-His-Z-Lys-Phe-Leu-NH2 library, Ni^2+ 2 mM, pH 8.2, 10 mM Tris, score=24/tm
Procedure, shortened: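 The screen used 1 mM peptide mixtures in 10 mM Tris, pH 8.2, with 2 mM Ni2+ at two temperatures, 37 °C and 45 °C. Product appearance and substrate decline were monitored visually by MALDI-TOF over 8 h. Scores for X and Z were then summed by row and column to rank substitutions.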

Substance	hydrolysis score from MALDI-TOF screening (37° C.)	hydrolysis score from MALDI-TOF screening (45° C.)
Ac-GASPHQKFL-NH2 [SPHQ]	0 (a score of 0 if no trace of the product of hydrolysis was seen after 8 hours of incubation)	0 (a score of 0 if no trace of the product of hydrolysis was seen after 8 hours of incubation)
Ac-GASPHRKFL-NH2 [SPHR]	0 (a score of 0 if no trace of the product of hydrolysis was seen after 8 hours of incubation)	0 (a score of 0 if no trace of the product of hydrolysis was seen after 8 hours of incubation)
Ac-GASPHSKFL-NH2 [SPHS]	0 (a score of 0 if no trace of the product of hydrolysis was seen after 8 hours of incubation)	0 (a score of 0 if no trace of the product of hydrolysis was seen after 8 hours of incubation)
Ac-GASPHTKFL-NH2 [SPHT]	0 (a score of 0 if no trace of the product of hydrolysis was seen after 8 hours of incubation)	0 (a score of 0 if no trace of the product of hydrolysis was seen after 8 hours of incubation)
Ac-GASPHVKFL-NH2 [SPHV]	0 (a score of 0 if no trace of the product of hydrolysis was seen after 8 hours of incubation)	0 (a score of 0 if no trace of the product of hydrolysis was seen after 8 hours of incubation)
Ac-GASPHWKFL-NH2 [SPHW]	0 (a score of 0 if no trace of the product of hydrolysis was seen after 8 hours of incubation)	0 (a score of 0 if no trace of the product of hydrolysis was seen after 8 hours of incubation)
Ac-GASPHYKFL-NH2 [SPHY]	0 (a score of 0 if no trace of the product of hydrolysis was seen after 8 hours of incubation)	0 (a score of 0 if no trace of the product of hydrolysis was seen after 8 hours of incubation)
Ac-GASQHAKFL-NH2 [SQHA]	0 (a score of 0 if no trace of the product of hydrolysis was seen after 8 hours of incubation)	3 (a score of 3 for detection at 8 hours)
Ac-GASQHDKFL-NH2 [SQHD]	0 (a score of 0 if no trace of the product of hydrolysis was seen after 8 hours of incubation)	0 (a score of 0 if no trace of the product of hydrolysis was seen after 8 hours of incubation)
Ac-GASQHEKFL-NH2 [SQHE]	0 (a score of 0 if no trace of the product of hydrolysis was seen after 8 hours of incubation)	0 (a score of 0 if no trace of the product of hydrolysis was seen after 8 hours of incubation)
Ac-GASQHFKFL-NH2 [SQHF]	3 (a score of 3 for detection at 8 hours)	4 (a score of 4 for detection at 6 hours)
Ac-GASQHGKFL-NH2 [SQHG]	0 (a score of 0 if no trace of the product of hydrolysis was seen after 8 hours of incubation)	0 (a score of 0 if no trace of the product of hydrolysis was seen after 8 hours of incubation)
Ac-GASQHHKFL-NH2 [SQHH]	0 (a score of 0 if no trace of the product of hydrolysis was seen after 8 hours of incubation)	0 (a score of 0 if no trace of the product of hydrolysis was seen after 8 hours of incubation)
Ac-GASQHIKFL-NH2 [SQHI]	6 (a score of 6 for detection at 4 hours)	6 (a score of 6 for detection at 4 hours)
Ac-GASQHKKFL-NH2 [SQHK]	4 (a score of 4 for detection at 6 hours)	6 (a score of 6 for detection at 4 hours)
Ac-GASQHLKFL-NH2 [SQHL]	6 (a score of 6 for detection at 4 hours)	6 (a score of 6 for detection at 4 hours)
Ac-GASQHMKFL-NH2 [SQHM]	0 (a score of 0 if no trace of the product of hydrolysis was seen after 8 hours of incubation)	3 (a score of 3 for detection at 8 hours)
Ac-GASQHNKFL-NH2 [SQHN]	0 (a score of 0 if no trace of the product of hydrolysis was seen after 8 hours of incubation)	0 (a score of 0 if no trace of the product of hydrolysis was seen after 8 hours of incubation)
Ac-GASQHPKFL-NH2 [SQHP]	0 (a score of 0 if no trace of the product of hydrolysis was seen after 8 hours of incubation)	0 (a score of 0 if no trace of the product of hydrolysis was seen after 8 hours of incubation)
Ac-GASQHQKFL-NH2 [SQHQ]	0 (a score of 0 if no trace of the product of hydrolysis was seen after 8 hours of incubation)	0 (a score of 0 if no trace of the product of hydrolysis was seen after 8 hours of incubation)
Ac-GASQHRKFL-NH2 [SQHR]	6 (a score of 6 for detection at 4 hours)	6 (a score of 6 for detection at 4 hours)

Substance	hydrolysis score from MALDI-TOF screening (37° C.)	hydrolysis score from MALDI-TOF screening (45° C.)
Ac-GASQHSKFL-NH2 [SQHS]	0 (a score of 0 if no trace of the product of hydrolysis was seen after 8 hours of incubation)	0 (a score of 0 if no trace of the product of hydrolysis was seen after 8 hours of incubation)
Ac-GASQHTKFL-NH2 [SQHT]	0 (a score of 0 if no trace of the product of hydrolysis was seen after 8 hours of incubation)	0 (a score of 0 if no trace of the product of hydrolysis was seen after 8 hours of incubation)
Ac-GASQHVKFL-NH2 [SQHV]	0 (a score of 0 if no trace of the product of hydrolysis was seen after 8 hours of incubation)	4 (a score of 4 for detection at 6 hours)
Ac-GASQHWKFL-NH2 [SQHW]	6 (a score of 6 for detection at 4 hours)	6 (a score of 6 for detection at 4 hours)
Ac-GASQHYKFL-NH2 [SQHY]	3 (a score of 3 for detection at 8 hours)	4 (a score of 4 for detection at 6 hours)
Ac-GASRHAKFL-NH2 [SRHA]	3 (a score of 3 for detection at 8 hours)	6 (a score of 6 for detection at 4 hours)
Ac-GASRHDKFL-NH2 [SRHD]	0 (a score of 0 if no trace of the product of hydrolysis was seen after 8 hours of incubation)	0 (a score of 0 if no trace of the product of hydrolysis was seen after 8 hours of incubation)
Ac-GASRHEKFL-NH2 [SRHE]	0 (a score of 0 if no trace of the product of hydrolysis was seen after 8 hours of incubation)	3 (a score of 3 for detection at 8 hours)
Ac-GASRHFKFL-NH2 [SRHF]	4 (a score of 4 for detection at 6 hours)	4 (a score of 4 for detection at 6 hours)
Ac-GASRHGKFL-NH2 [SRHG]	3 (a score of 3 for detection at 8 hours)	6 (a score of 6 for detection at 4 hours)
Ac-GASRHHKFL-NH2 [SRHH]	4 (a score of 4 for detection at 6 hours)	4 (a score of 4 for detection at 6 hours)
Ac-GASRHIKFL-NH2 [SRHI]	12 (a score of 12, if it was seen to be partially hydrolysed at 2 hours)	12 (a score of 12, if it was seen to be partially hydrolysed at 2 hours)
Ac-GASRHKKFL-NH2 [SRHK]	6 (a score of 6 for detection at 4 hours)	12 (a score of 12, if it was seen to be partially hydrolysed at 2 hours)
Ac-GASRHLKFL-NH2 [SRHL]	12 (a score of 12, if it was seen to be partially hydrolysed at 2 hours)	12 (a score of 12, if it was seen to be partially hydrolysed at 2 hours)
Ac-GASRHMKFL-NH2 [SRHM]	3 (a score of 3 for detection at 8 hours)	3 (a score of 3 for detection at 8 hours)
Ac-GASRHNKFL-NH2 [SRHN]	0 (a score of 0 if no trace of the product of hydrolysis was seen after 8 hours of incubation)	0 (a score of 0 if no trace of the product of hydrolysis was seen after 8 hours of incubation)
Ac-GASRHPKFL-NH2 [SRHP]	0 (a score of 0 if no trace of the product of hydrolysis was seen after 8 hours of incubation)	0 (a score of 0 if no trace of the product of hydrolysis was seen after 8 hours of incubation)
Ac-GASRHQKFL-NH2 [SRHQ]	0 (a score of 0 if no trace of the product of hydrolysis was seen after 8 hours of incubation)	0 (a score of 0 if no trace of the product of hydrolysis was seen after 8 hours of incubation)
Ac-GASRHRKFL-NH2 [SRHR]	4 (a score of 4 for detection at 6 hours)	12 (a score of 12, if it was seen to be partially hydrolysed at 2 hours)
Ac-GASRHSKFL-NH2 [SRHS]	3 (a score of 3 for detection at 8 hours)	4 (a score of 4 for detection at 6 hours)
Ac-GASRHTKFL-NH2 [SRHT]	0 (a score of 0 if no trace of the product of hydrolysis was seen after 8 hours of incubation)	3 (a score of 3 for detection at 8 hours)
